Measured values published in ChEMBL document CHEMBL1149870, “Synthesis and antibacterial activity of egonol derivatives” (2008).
In brackets after ≈: the same amount, converted by molar mass. Activity calls are given as the source filed them. The rule behind the calls is not given here.

Experiments:
Type in all cases: functional
Staphylococcus aureus = assay: Antibacterial activity against Staphylococcus aureus by Muller Hilton broth method
Bacillus subtilis = assay: Antibacterial activity against Bacillus subtilis by Muller Hilton broth method
Escherichia coli = assay: Antibacterial activity against Escherichia coli by Muller Hilton broth method
Candida albicans = assay: Antifungal activity against Candida albicans by Muller Hilton broth method

SMILES | MIC (Staphylococcus aureus) [µg/mL] | MIC (Bacillus subtilis) [µg/mL] | MIC (Escherichia coli) [µg/mL] | Activity (Candida albicans) | MIC (Candida albicans) [µg/mL] | Activity (Staphylococcus aureus) | Activity (Escherichia coli)
COc1cc(CCCC#N)cc2cc(-c3ccc4c(c3)OCO4)oc12 | 800 (≈ 2390 µM) | 800 (≈ 2390 µM) | 800 (≈ 2390 µM) | inactive | – | – | –
COc1cc(CCCOC=O)cc2cc(-c3ccc4c(c3)OCO4)oc12 | 400 (≈ 1130 µM) | 400 (≈ 1130 µM) | 400 (≈ 1130 µM) | – | 400 (≈ 1130 µM) | – | –
COc1cc(CCCBr)cc2cc(-c3ccc4c(c3)OCO4)oc12 | 800 (≈ 2060 µM) | 400 (≈ 1030 µM) | 800 (≈ 2060 µM) | – | 400 (≈ 1030 µM) | – | –
COc1cc(CCC=O)cc2cc(-c3ccc4c(c3)OCO4)oc12 | 64 (≈ 197 µM) | 256 (≈ 789 µM) | 800 (≈ 2470 µM) | – | 128 (≈ 395 µM) | – | –
COc1cc(CCCOC(=O)c2ccccc2)cc2cc(-c3ccc4c(c3)OCO4)oc12 | 800 (≈ 1860 µM) | 800 (≈ 1860 µM) | 800 (≈ 1860 µM) | – | 800 (≈ 1860 µM) | – | –
COc1c(Br)c(CCCO)cc2cc(-c3ccc4c(c3)OCO4)oc12 | 800 (≈ 1970 µM) | 800 (≈ 1970 µM) | 800 (≈ 1970 µM) | – | 800 (≈ 1970 µM) | – | –
COc1cc(CCCO)cc2c([N+](=O)[O-])c(-c3ccc4c(c3)OCO4)oc12 | – | 800 (≈ 2150 µM) | – | – | 800 (≈ 2150 µM) | inactive | inactive
COc1cc(CCCOCCCBr)cc2cc(-c3ccc4c(c3)OCO4)oc12 | 256 (≈ 572 µM) | 256 (≈ 572 µM) | 800 (≈ 1790 µM) | – | 800 (≈ 1790 µM) | – | –
COc1cc(CCCCl)cc2cc(-c3ccc4c(c3)OCO4)oc12 | 256 (≈ 742 µM) | 128 (≈ 371 µM) | 256 (≈ 742 µM) | – | 64 (≈ 186 µM) | – | –
COc1cc(CCCO)cc2cc(-c3ccc4c(c3)OCO4)oc12 [EGONOL] | 800 (≈ 2450 µM) | 800 (≈ 2450 µM) | 800 (≈ 2450 µM) | – | 800 (≈ 2450 µM) | – | –
COc1cc(CCCI)cc2cc(-c3ccc4c(c3)OCO4)oc12 | 800 (≈ 1830 µM) | 800 (≈ 1830 µM) | 800 (≈ 1830 µM) | – | 800 (≈ 1830 µM) | – | –
